Measurements published in patent US8840924B2, “Compositions and methods of making rapidly dissolving ionically masked formulations” (NEOS Therapeutics, LP, priority 2005, dated 2014).

Columns and labels:
[1] = Dissolution profile of capsule (release of pseudoephedrine and chlorpheniramine); assay type: physicochemical; conditions: Table 4, capsules
Description: In addition the composition may be in the form of a capsule. Below is a list of actual assay results for one example of the present invention when in the form of a capsule.

[2] = Dissolution profile of chewable tablet (release of pseudoephedrine and chlorpheniramine); assay type: physicochemical
Description: Below is a list of actual assay results for one example of the present invention with the composition listed as formula II above.
Below is a list of assay results for one example of the present invention with the composition listed as formula II above.

[3] = Table 1, chewable tablet, composition formula II
[4] = Table 2, after Example III, text says formula II
[5] = Table 3, composition listed as formula II

Structure (SMILES)	release, 90 min (%) [1]	release, 3 Hr (%) [1]	release, 6 Hr (%) [1]	release, 12 Hr (%) [1]	release, 30 min (%) [2, 3]	release, 1 Hr (%) [2, 3]	release, 3 Hr (%) [2, 3]	release, 8 Hr (%) [2, 3]	release, 30 min (%) [2, 4]	release, 1 Hr (%) [2, 4]	release, 3 Hr (%) [2, 4]	release, 8 Hr (%) [2, 4]	release, 30 min (%) [2, 5]	release, 1 Hr (%) [2, 5]	release, 3 Hr (%) [2, 5]	release, 8 Hr (%) [2, 5]	release, 30 min (%) ([2]; Table 1, chewable tablet, composition formula II, listed as pseudoephedrine)
CN(C)CCC(c1ccc(Cl)cc1)c1ccccn1 (stereo not drawn) [Chlorpheniramine]	21.9%	35.4%	55.2%	78.6%	35.1%	42.7%	51.6%	60.8%	36.4%	42.1%	51.0%	60.7%	40.1%	45.1%	53.3%	62.1%	–
CN[C@@H](C)[C@@H](O)c1ccccc1 [Pseudoephedrine]	34.8%	54.1%	75.4%	91.7%	27.6%	37.8%	59.4%	82.0%	27.0%	36.3%	53.0%	78.4%	29.2%	39.7%	61.2%	85.2%	26.7%
